Assay results: patent US6703426B1, “Treatment of breast cancer” (University of Central Florida, priority 2001, dated 2004)
Read-outs that look alike come from different tables or passages of the source.

Assays:
[1] = test system: human breast cancer cells (ATCC HTB123); assay: Cytotoxicity assay (MTS/PMS), growth inhibition of human breast cancer cells; type: cell-based; set-up: concentration or dose not given beside the values; conditions: approximately 48 hours growth with test compound
Experimental: The activity in human breast cancer of the novel compounds (as earlier reported) was realized by the following procedure which determines the inhibitory effect of test samples on the growth of human breast cancer cells.
(ATCC HTB123) The HTB123 cells are grown in RPMI 1640 media+10% Fetal bovine serum+4.5 g/L glucose+10 mM HEPES+1.0 mM sodium pyruvate+1% Antibiotic/Antimycotic for approximately 48 hours at 37° C./5% CO2 in the presence of the test compound.
Growth/Non-Growth of the cells (e.g., cell density) is determined using Promega's MTS/PMS assay system. MTS (3-(4,5-dimethylthiazol-2-yl)-5-(3-carboxymethoxyphenyl)-2-(4-sulfophenyl)-2H-tetrazolium, inner salt) is an aqueous compound that is reduced to soluble formazan by the presence of NADH formed by dehydrogenases present within the HTB123 cells. The absorbance of the formazan can be measured at 490 nm and is directly proportional to the number of living cells present in the culture. PMS (Phenazine Methosulfate) is added an electron coupling reagent and greatly increases the rate of reduction.
To facilitate a full understanding of the procedure the following definitions are offered:
Test wells—wells containing test sample and Diluted HTB 123 cells
Test values—absorbance of test wells
Blank wells—wells containing test sample and HTB 123 media (HHTB2-01S); used to obtain background absorbance due to test sample
Blank values—absorbance of blank wells.
Negative Control—maximal cell growth; results of test samples will be expressed as a percent of the Negative Control
Positive Control—known inhibitor of HTB123 cells; used to validate assay system
Matrix—solvent that the samples are prepared/diluted in
Assay samples of similar origin and matrix (e.g., methanol extraction, methylene chloride extraction, water soluble samples, etc.) together on the same plate in order to reduce the number of steps performed per plate.
Blank values will be determined for each sample to account for any color contribution due to the sample itself. These blank wells must contain the same amount of sample plus HTB123 media (no cells). After completion of MTS/PMS reaction blank values will be subtracted from the test value to obtain a net absorbance that will be used to calculate cell density.
All results are based upon a comparison to the Negative Control value of the plate. The Negative Control must contain the same amount of matrix (e.g., solvent) to offset any destructive effect the matrix may have on the growth of the HTB123 cells (allows for baseline values to be set).
For most samples, a HTB123 cell growth (diluted two to four-fold, depending upon the appearance of the inoculum*) of approximately 48 hours followed by and incubation of 3 hours with the MTS/PMS Reagent is optimal.
*Due to the nature of the HTB123 cells it is very difficult to obtain accurate cell densities. Continuation of the HTB123 cell line typically consists of the dilution of mature cells at two or three-fold into fresh media and growth at 37° C./5% CO2 for two to three days.
In order to establish the accuracy of this assay a Positive Control consisting of 50 μM Methotrexate should […] 90% of the Negative Control (HTB123 cells are somewhat resistant to methotrexate) is utilized.

white mice [2] = assay: Animal toxicity bioassay (acute toxicity, LD50); type: in vivo; conditions: intraperitoneal injection, observed 14 days
[3] = Solubility in solvents and water; type: physicochemical; conditions: for Solubility in organic solvents: organic solvents as listed
Stability in solution = type: physicochemical; conditions: solution heated or stored for a long time; decomposes with formation of OF-12
[4] = Animal toxicity bioassay (acute toxicity, LD50); type: in vivo; conditions: both sexes, mouse, in vivo, ip, white mice, intraperitoneal injection, observed 14 days
[5] = background statement; cited from earlier work
white mice [6] = conditions: same bioassay system (JZKEDZ 6,1,1980); cited from earlier work
[7] = read-out: LD50 (animal toxicity)

Row | Structure (SMILES) | Activity (ATCC HTB123) [1] | Solubility in organic solvents [3] | percent activity against human breast carcinoma [1] | LD50 at 14 days [4, 7] | further results
1 | CCOc1ccc(C(=O)CC(O)(NN=C2c3ccccc3-c3ccccc32)C(=O)OC)cc1 (centres unmarked) [OF-13, 4-(4-Ethoxy-phenyl)-2-(N′-fluoren-9-ylidene-hydrazino)-2-hydroxy-4-oxo-butyric acid methyl ester] | 100% | highly soluble in DMSO, DMFA, dichloroethane, acetonitrile, insoluble in hexane | – | – | LD50 (white mice [2]): >1500 mg/kg; Stability in solutions (Stability in solution): not stable in solutions
2 | COC(=O)C1(O)C(C(=O)c2ccc(C)cc2)=C(O)C(=O)N1c1ccc(C)cc1C (centres unmarked) [1F-07, 1-(2,4-Dimethyl-phenyl)-2,4-dihydroxy-3-(4-methyl-benzoyl)-5-oxo-2,5-dihydro-1H-pyrrole-2-carboxylic acid methyl ester] | – | highly soluble in DMSO, acetonitrile, slightly soluble in dichloroethane, benzene, insoluble in hexane tetrachloromethane | 100% | > 500 mg/kg | Solubility in water [3]: insoluble
3 | COC(=O)/C(=C/C(=O)c1ccccc1)NN=C1c2ccccc2-c2ccccc21 [1F-04, 2-(N′-Fluoren-9-ylidene-hydrazino)-4-oxo-4-phenyl-but-2-enoic acid methyl ester] | 93% | – | – | – | LD50 (white mice [2]): >1000 mg/kg
4 | COC(=O)C(=CC(=O)C(C)(C)C)NN=C1c2ccccc2-c2ccccc21 [OF-06, 2-(N′-Fluoren-9-ylidene-hydrazino)-5,5-dimethyl-4-oxo-hex-2-enoic acid methyl ester] | – | highly soluble in DMSO, DMFA, dichloroethane, acetonitrile, slightly soluble in ethanol, tetrachloromethane, insoluble in hexane | 100% | – | Solubility in water [3]: insoluble
5 | COC(=O)/C(=C/C(=O)c1ccccc1)N/N=C(\C)c1ccc(Cl)cc1 [OF-20, 2-{N′-[1-(4-Chloro-phenyl)-ethylidene]-hydrazino}-4-oxo-4-phenyl-but-2-enoic acid methyl ester] | 83% | – | – | – | –
6 | CCOc1ccc(C(Cl)=CC(=NN=C2c3ccccc3-c3ccccc32)C(=O)OC)cc1 [3F-19, 4-Chloro-4-(4-ethoxy-phenyl)-2-(fluoren-9-ylidene-hydrazono)-but-3-enoic acid methyl ester] | 100% | – | – | – | LD50 at 14 days ([4]; read-out: LD50): > 200 mg/kg
7 | COc1ccc(C(=O)C(=NNc2ccccc2)C(=O)C(=O)O)cc1 [3F-10, 4-(4-Methoxy-phenyl)-2,4-dioxo-3-(phenyl-hydrazono)-butyric acid] | – | highly soluble in DMSO, DMFA, slightly soluble in chloroform, dichloroethane; insoluble in hexanes | 100% | < 750 mg/kg | –
8 | Cc1ccc(C(=O)C2=NN(c3ccccc3)C(=O)C2(O)O)cc1 [3F-16, 4,4-Dihydroxy-5-(4-methyl-benzoyl)-2-phenyl-2,4-dihydro-pyrazol-3-one] | – | highly soluble in DMSO, dioxane | 100% | > 500 mg/kg | Solubility in water [3]: insoluble
9 | CCOC(=O)C(=O)C(=NNc1ccccc1)C(=O)c1ccc(Cl)cc1 [3F-11, 4-(4-Chloro-phenyl)-2,4-dioxo-3-(phenyl-hydrazono)-butyric acid ethyl ester] | – | – | 100% | > 2000 mg/kg | –
10 | CC(=O)O[C@H]1C(=O)[C@@]2(C)[C@H]([C@H](OC(=O)c3ccccc3)[C@]3(O)C[C@H](OC(=O)[C@H](O)[C@@H](NC(=O)c4ccccc4)c4ccccc4)C(C)=C1C3(C)C)[C@]1(OC(C)=O)CO[C@@H]1C[C@@H]2O [Taxol] | – | – | – | – | Solubility in water [5]: insoluble in water; intraperitoneal LD50 dose in mice (white mice [6]): 218 mg/kg
11 | COc1c(F)c(F)c(C(=O)C=C(O)C(=O)O)c(F)c1F [3F-15, 2-Hydroxy-4-oxo-4-(2,3,5,6-tetrafluoro-4-methoxy-phenyl)-but-2-enoic acid] | – | – | 100% | > 200 mg/kg | –
